{
  "source": "patent US8168199B2",
  "about": "“Dipeptidyl peptidase IV inhibitors for the treatment of schizophrenia and depression” (priority 2000, dated 2012)",
  "test_system": "Male WistarF/Han (WF) rats",
  "assay": "Elevated plus maze (EPM) testing, i.c.v. P32/98",
  "assay_type": "in vivo, rat",
  "protocol": "Animals. […]\nElevated plus maze (EPM) testing. […] The following parameters were calculated: Total numbers of arm entries (TA); entries to closed arms (CA); entries to open arms (OA); percentage frequency of entries to open arms (% OA: OA×100/TA); total trial duration (TT): 300 s; duration of stay in closed arms (closed time; CLT); percentage share of CLT in total arms-stay duration (CLT×100/AT); duration of stay in open arms (open time; OT) and percentage share of OT in total arm-stay duration (% OT: OT×100/AT). In addition to the standard spatiotemporal measurements, “time spent and percentage of time on the central square” were recorded (center time, CT: duration of stay on platform in seconds; percentage share of CT in trial duration, % CT: CT×100/TT). […]",
  "data": [
    {"smiles": "CC[C@H](C)[C@H](N)C(=O)N1CCSC1", "note": "[P32/98]", "values": [
      {"measurement": "effect of treatment on percentage of time spent on the open arms (analysis of variance)", "setting": "i.c.v. aCSF, 0.05, 5, 500 nmol", "value": "significant effect"},
      {"measurement": "percentage of time spent on the open arms of the EPM", "setting": "i.c.v. low dose 50 pmol, 60 min before test, vs aCSF", "value": "increased"}
    ]}
  ]
}
